Publication PMC12042413 (Cell chemical biology, 2025)

Assays:
CDK9/Cyclin T1 = CDK9/Cyclin T1 (Homo sapiens, UniProt P50750); test: biochemical kinase IC50
CDK9 = CDK9 (Homo sapiens, UniProt P50750); test: competition rescue of CDK9 degradation in MOLT-4 cells; type: cell-based
Chain of CDK9 (P50750 whole entry): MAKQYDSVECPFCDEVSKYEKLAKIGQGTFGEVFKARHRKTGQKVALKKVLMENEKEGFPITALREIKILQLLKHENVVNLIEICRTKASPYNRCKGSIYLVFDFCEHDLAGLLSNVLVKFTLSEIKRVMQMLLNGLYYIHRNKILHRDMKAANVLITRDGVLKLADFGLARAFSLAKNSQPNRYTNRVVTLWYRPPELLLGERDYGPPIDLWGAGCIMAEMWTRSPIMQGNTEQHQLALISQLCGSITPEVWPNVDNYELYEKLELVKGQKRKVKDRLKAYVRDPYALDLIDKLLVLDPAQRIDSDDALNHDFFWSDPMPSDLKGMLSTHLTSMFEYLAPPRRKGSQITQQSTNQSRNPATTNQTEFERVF

Chain of CDK9/Cyclin T1 (P50750 whole entry): as above
Chain of CDK9/Cyclin T1 (O60563 whole entry partner): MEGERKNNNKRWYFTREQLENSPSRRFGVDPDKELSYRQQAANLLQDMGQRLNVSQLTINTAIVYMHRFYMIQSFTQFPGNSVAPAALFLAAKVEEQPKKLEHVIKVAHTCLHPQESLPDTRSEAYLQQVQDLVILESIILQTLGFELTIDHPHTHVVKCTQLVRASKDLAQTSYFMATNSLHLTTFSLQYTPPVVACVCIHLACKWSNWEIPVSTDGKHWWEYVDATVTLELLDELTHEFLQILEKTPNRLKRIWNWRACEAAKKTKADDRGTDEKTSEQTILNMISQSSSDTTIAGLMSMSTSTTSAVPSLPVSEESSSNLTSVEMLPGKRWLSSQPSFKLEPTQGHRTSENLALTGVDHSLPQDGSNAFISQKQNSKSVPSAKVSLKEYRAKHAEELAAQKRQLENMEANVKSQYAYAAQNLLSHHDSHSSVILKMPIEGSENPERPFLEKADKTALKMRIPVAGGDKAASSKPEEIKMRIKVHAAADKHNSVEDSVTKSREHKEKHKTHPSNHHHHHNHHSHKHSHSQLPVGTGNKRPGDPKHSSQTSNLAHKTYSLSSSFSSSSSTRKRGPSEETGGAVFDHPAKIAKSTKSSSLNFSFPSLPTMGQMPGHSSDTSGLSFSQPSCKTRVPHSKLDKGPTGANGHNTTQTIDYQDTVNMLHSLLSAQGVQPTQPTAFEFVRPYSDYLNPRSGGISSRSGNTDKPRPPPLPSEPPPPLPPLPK

IC50 (CDK9/Cyclin T1)	Structure (SMILES)	competition rescue of CDK9 degradation in MOLT-4 cells (Western blot, 5 uM) (CDK9)
3 nM	CCCc1cc(N[C@@H]2CC[C@@H](NC(=O)c3ccc(CN4CCN(c5ccc6c(c5)CN(C5CCC(=O)NC5=O)C6=O)CC4)cc3)C2)n2nccc2n1 (stereo partly drawn) [KI-CDK9d-32, 4-((4-(2-(2,6-dioxopiperidin-3-yl)-1-oxoisoindolin-5-yl)piperazin-1-yl)methyl)-N-((1R,3R)-3-((5-propylpyrazolo[1,5-a]pyrimidin-7-yl)amino)cyclopentyl)benzamide]	–
–	CCCc1cc(N[C@@H]2CC[C@@H](NC(=O)c3ccc(CN4CCN(c5ccc6c(c5)CN(C5CCC(=O)N(C)C5=O)C6=O)CC4)cc3)C2)n2nccc2n1 (stereo partly drawn) [KI-CDK9d-32N, 4-((4-(2-(1-methyl-2,6-dioxopiperidin-3-yl)-1-oxoisoindolin-5-yl)piperazin-1-yl)methyl)-N-((1R,3R)-3-((5-propylpyrazolo[1,5-a]pyrimidin-7-yl)amino)cyclopentyl)benzamide]	rescued through co-treatments with excess KB-0742, pomalidomide, or KI-CDK9d-32N, a negative control PROTAC with impaired CRBN binding
